Laboratory results taken from patent publication US7544664B2, “Sequences facilitating penetration of a substance of interest” (priority 2003, dated 2009).
≈ marks a conversion by molar mass, not a printed value.

How the values were obtained:
[1] = literature (Tabosa Do Egito et al. 1996); cited from earlier work
[2] = test system: Candida parapsilosis (ATCC 22019); experiment: In vitro antifungal activity MIC80 (NCCLS M27A); conditions: MIC80, 48 hours, 37° C.; DPV15-AmB and AmB in μg/ml of AmB active product

C[C@@H]1[C@H](O)[C@@H](C)/C=C/C=C/C=C/C=C/C=C/C=C/C=C/[C@H](O[C@@H]2O[C@H](C)[C@@H](O)[C@H](N)[C@@H]2O)C[C@@H]2O[C@](O)(C[C@@H](O)C[C@@H](O)[C@H](O)CC[C@@H](O)C[C@@H](O)CC(=O)O[C@H]1C)C[C@H](O)[C@H]2C(=O)O [AmB, Amphotericin B]
MTD [1]: 1 mg/kg | MIC [2]: 0.25 µg/mL (≈ 0.271 µM)
